According to patent US9133220B2, “Boron-containing 5-arylidene-3,5-dihydro-4H-imidazol-4-ones” (Evrogen Joint Stock Company, priority 2012, dated 2015):
In brackets after ≈: the same amount, converted by molar mass. Like-named read-outs stand apart in the source and are kept apart here. Marks after values point to notes of the source that are not given here. Values belong to the compound of their own block, whether it stands above or below them.

Key:
[1] = Measuring spectral characteristics (absorption and emission maxima, extinction coefficients); type: physicochemical
Experimental: (§1) To measure spectral characteristics of some compounds with the formula I weighted portions of compounds p-NH2-BDI-BF2, p-dimethylamino-BDI-BF2, p-diethylamino-BDI-BF2, p-HOBDI-BF2, di-F-p-HOBDI-BF2, p-diethylamino-BDI-dimethylaminoethenyl-BF2 and p-HOBDI-dimethylaminoethenyl-BF2 were dissolved in water, ethanol and acetonitrile. Absorption spectra were measured on Varian Cary 100 Bio spectrophotometer, fluorescence spectra were measured on Varian Cary Eclipse scanning spectrofluorometer.
The values of absorption and emission maxima and molar extinction coefficients for examples of compounds with the formula I in the indicated solvents are listed in a Table 2. Emission peaks of the investigated compounds settle into a rather wide range from 485 nm for p-HOBDI-BF2 to 598 nm for p-diethylamino-BDI-dimethylamino-ethenyl-BF2.

[2] = Quantum yield of fluorescence; type: physicochemical
Experimental: as §1
The compounds p-NH2-BDI-BF2, p-HOBDI-BF2 (anionic form), di-Fp-HOBDI-BF2 (anionic form), p-diethylamino-BDI-dimethylaminoethenyl-BF2, p-HOBDI-dimethylaminoethenyl-BF2 (anionic form) have rather high quantum yields of fluorescence in water solutions.

[3] = cited from earlier work; for emission peak: widely used fluorescent dyes, approximate values
[4] = Determination of solubility in water; type: physicochemical; details: thermodynamic from solid
Experimental: To determine the solubility in water of compounds an excess amount of analyzed substance was put in a known volume of a solvent and stirred for 5 hours at r.t. The obtained mixture was centrifuged, and the concentration of a compound in mother liquor was measured with spectrophotometric method on the base of molar extinction coefficients data.

[5] = Photoacidity: acidity constants of ground and excited states; type: physicochemical
Excerpt: Photoacidity is an ability to dissociate with formation of H^+ ion under the action of visible light. Photoacidity is characterized by constants of acidity of ground and excited states. Förster's equation describes the relationship between acidity constants of ground and excited states and energy of transfer between the states.
For compounds of the formula I, containing phenolic OH-group, high photoacidity—an ability to dissociate with formation of H^+ ion under the action of visible light—is a distinctive feature. […] (^1)((Z)-4-(2-(difluoroboryl)-3,5-difluoro-4-hydroxybenzylidene)-1,2-dimethyl-1H-imidazole-5(4H)-one)

[6] = Chemical stability at high pH; type: physicochemical; details: pH 11, 70° C., 2 hours
Excerpt: Compound of the general formula I differ from the majority of fluorescent dyes because of their high resistance to the action of different chemical factors—nucleophiles and high pH. […] It should be noted, that long-time heating in alkaline conditions may result in exchange of fluorine atoms from difluoroboryl residue to hydroxyl groups, however no significant change in absorption and fluorescence spectra is observed.

[7] = water, neutral form line, starred: only emission of deprotonated form can be measured due to high photoacidity
[8] = acidic and neutral pH values, r.t.
[9] = acidic and neutral values of pH

SMILES: O=C1NC=N/C1=C\c1cccn1B(F)F [(Z)-4-((1-(difluoroboryl)-1H-pyrrol-2-yl)methylene)-1H-imidazole-5(4H)-one]
Quantum yield of fluorescence ([3]; comparison values for known fluorophores): 0.81

SMILES: CCN1C(=CC=CC2=[N+](CCCCCC(=O)O)c3ccc(S(=O)(=O)O)cc3C2(C)C)C(C)(C)c2cc(S(=O)(=O)[O-])ccc21 [Cy3]
emission peak [3]: 570 nm

SMILES: CCCCCCCCCCCCCCCCCCN1/C(=C\C=C\c2oc3ccccc3[n+]2CCCCCCCCCCCCCCCCCC)Oc2ccccc21.[O-][Cl+3]([O-])([O-])[O-] [DiO]
emission peak [3]: 501 nm

SMILES: O=C1OC2(c3ccc(O)cc3Oc3cc(O)ccc32)c2ccc(N=C=S)cc21 [FITC]
emission peak [3]: 521 nm

SMILES: CC1=N/C(=C\c2ccc(O)cc2)C(=O)N1C [p-HOBDI, (Z)-4-(4-hydroxybenzylidene)-1,2-dimethyl-1H-imidazole-5(4H)-one]
Quantum yield ([3]; p-HOBDI, from D. Mandal et al., J. Phys. Chem. B 108, 1102 (2004), spans water, ethanol, acetonitrile columns): Quantum yield is less than 10^−4

SMILES: CC1=N/C(=C\c2ccc(O)cc2B(F)F)C(=O)N1C [p-HOBDI-BF2, (Z)-4-(2-(difluoroboryl)-4-hydroxybenzylidene)-1,2-dimethyl-1H-imidazole-5(4H)-one]
Abs. peak ([1]; acetonitrile, anionic form): 521 nm | Emis. peak ([1]; acetonitrile, anionic form): 540 nm | Abs. peak ([1]; acetonitrile, neutral form): 402 nm | Emis. peak ([1]; acetonitrile, neutral form): 469 nm | ext. coef. ([1]; acetonitrile, neutral form): 31000 M⁻¹ cm⁻¹ | shift of emission and absorption spectra with change of more polar solvent (water) to less polar (ethanol, acetonitrile) ([1]; anionic form): bathochromic shift | bathochromic shift of emission and absorption spectra relative to p-HOBDI ([1]; different solvents): 30-40 nm | Abs. peak ([1]; ethanol, anionic form): 512 nm | Emis. peak ([1]; ethanol, anionic form): 532 nm | ext. coef. ([1]; ethanol, anionic form): 55000 M⁻¹ cm⁻¹ | Abs. peak ([1]; ethanol, neutral form): 416 nm | Emis. peak ([1]; ethanol, neutral form): 483 nm | ext. coef. ([1]; ethanol, neutral form): 25000 M⁻¹ cm⁻¹ | shift of emission and absorption spectra with change of more polar solvent (water) to less polar (ethanol, acetonitrile) ([1]; neutral form): hypsochromic shift | Abs. peak ([1]; water, anionic form): 485 nm | Emis. peak ([1]; water, anionic form): 520 nm | ext. coef. ([1]; water, anionic form): 47000 M⁻¹ cm⁻¹ | Abs. peak ([1]; water, neutral form): 404 nm | Emis. peak ([1]; water, neutral form): 485 nm | ext. coef. ([1]; water, neutral form): 26000 M⁻¹ cm⁻¹ | Quantum yield of fluorescence ([2]; acetonitrile): 0.73 | fluorescence lifetime ([2]; acetonitrile): 3.2 ns | Quantum yield of fluorescence ([2]; acetonitrile, anionic form): 0.73 | Quantum yield of fluorescence ([2]; water, anionic form): 0.54 | solubility at 5 h [4, 8]: ~1000 µM (≈ 264 µg/mL) | solubility at 5 h [4, 9]: 1 µM (≈ 0.264 µg/mL) | pKa ([5]; excited state): 2 | pKa ([5]; ground state, phenol group): 6.4 | effect of incubation on absorption and emission spectra [6]: doesn't affect significantly

SMILES: CC1=N/C(=C\c2ccc(N)cc2B(F)F)C(=O)N1C [p-NH2-BDI-BF2, (Z)-4-(4-amino-2-(difluoroboryl)benzylidene)-1,2-dimethyl-1H-imidazole-5(4H)-one]
shift of emission and absorption spectra with change of more polar solvent (water) to less polar (ethanol, acetonitrile) [1]: hypsochromic shift | Abs. peak ([1]; acetonitrile): 451 nm | Emis. peak ([1]; acetonitrile): 518 nm | Abs. peak ([1]; ethanol): 476 nm | Emis. peak ([1]; ethanol): 532 nm | Abs. peak ([1]; water): 475 nm | Emis. peak ([1]; water): 532 nm | Quantum yield of fluorescence ([2]; acetonitrile): 0.62 | Quantum yield of fluorescence ([2]; ethanol): 0.64 | Quantum yield of fluorescence ([2]; water): 0.70

SMILES: CC1=N/C(=C\c2ccc(N(C)C)cc2B(F)F)C(=O)N1C [p-dimethylamino-BDI-BF2, (Z)-4-(4-(dimethylamino)-2-(difluoroboryl)benzylidene)-1,2-dimethyl-1H-imidazole-5(4H)-one]
shift of emission and absorption spectra with change of more polar solvent (water) to less polar (ethanol, acetonitrile) [1]: hypsochromic shift | Abs. peak ([1]; acetonitrile): 483 nm | Emis. peak ([1]; acetonitrile): 551 nm | Abs. peak ([1]; ethanol): 498 nm | Emis. peak ([1]; ethanol): 557 nm | Abs. peak ([1]; water): 507 nm | Emis. peak ([1]; water): 565 nm | Quantum yield of fluorescence ([2]; acetonitrile): 0.49 | Quantum yield of fluorescence ([2]; ethanol): 0.31 | Quantum yield of fluorescence ([2]; water): 0.05

More lines, now with the values ahead:

shift of emission and absorption spectra with change of more polar solvent (water) to less polar (ethanol, acetonitrile) [1]: hypsochromic shift | Abs. peak ([1]; acetonitrile): 510 nm | Emis. peak ([1]; acetonitrile): 583 nm | Abs. peak ([1]; ethanol): 525 nm | Emis. peak ([1]; ethanol): 588 nm | Abs. peak ([1]; water): 525 nm | Emis. peak ([1]; water): 598 nm | Quantum yield of fluorescence ([2]; water): 0.35
SMILES: CCN(CC)c1ccc(/C=C2N=C(/C=C/N(C)C)N(C)C\2=O)c(B(F)F)c1 [(Z)-4-(4-(diethylamino)-2-(difluoroboryl)benzylidene)-2-((E)-2-(dimethylamino)vynil)-1-methyl-1H-imidazole-5(4H)-one]

Abs. peak ([1]; acetonitrile, anionic form): 522 nm | Emis. peak ([1]; acetonitrile, anionic form): 543 nm | Abs. peak ([1]; acetonitrile, neutral form): 397 nm | Emis. peak ([1]; acetonitrile, neutral form): 468 nm | ext. coef. ([1]; acetonitrile, neutral form): 28000 M⁻¹ cm⁻¹ | shift of emission and absorption spectra with change of more polar solvent (water) to less polar (ethanol, acetonitrile) ([1]; anionic form): bathochromic shift | Abs. peak ([1]; ethanol, anionic form): 505 nm | Emis. peak ([1]; ethanol, anionic form): 537 nm | ext. coef. ([1]; ethanol, anionic form): 48000 M⁻¹ cm⁻¹ | Abs. peak ([1]; ethanol, neutral form): 408 nm | Emis. peak ([1]; ethanol, neutral form): 482 nm | ext. coef. ([1]; ethanol, neutral form): 24000 M⁻¹ cm⁻¹ | shift of emission and absorption spectra with change of more polar solvent (water) to less polar (ethanol, acetonitrile) ([1]; neutral form): hypsochromic shift | Abs. peak ([1]; water, anionic form): 478 nm | Emis. peak ([1]; water, anionic form): 528 nm | ext. coef. ([1]; water, anionic form): 38300 M⁻¹ cm⁻¹ | Abs. peak ([1]; water, neutral form): 392 nm | ext. coef. ([1]; water, neutral form): 31500 M⁻¹ cm⁻¹ | Emis. peak [1, 7]: 528* nm | solubility at 5 h [4, 8]: ~1000 µM (≈ 282 µg/mL) | solubility at 5 h [4, 9]: 1 µM (≈ 0.282 µg/mL)
SMILES: CC1=N/C(=C\c2cc(F)c(O)cc2B(F)F)C(=O)N1C [F-p-HOBDI-BF2, (Z)-4-(2-(difluoroboryl)-5-fluoro-4-hydroxybenzylidene)-1,2-dimethyl-1H-imidazole-5(4H)-one]

Abs. peak ([1]; acetonitrile, anionic form): 519 nm | Emis. peak ([1]; acetonitrile, anionic form): 542 nm | Abs. peak ([1]; acetonitrile, neutral form): 392 nm | Emis. peak ([1]; acetonitrile, neutral form): 460 nm | ext. coef. ([1]; acetonitrile, neutral form): 26000 M⁻¹ cm⁻¹ | shift of emission and absorption spectra with change of more polar solvent (water) to less polar (ethanol, acetonitrile) ([1]; anionic form): bathochromic shift | Abs. peak ([1]; ethanol, anionic form): 503 nm | Emis. peak ([1]; ethanol, anionic form): 538 nm | ext. coef. ([1]; ethanol, anionic form): 45000 M⁻¹ cm⁻¹ | Abs. peak ([1]; ethanol, neutral form): 400 nm | ext. coef. ([1]; ethanol, neutral form): 21000 M⁻¹ cm⁻¹ | Emis. peak ([1]; ethanol, neutral form line, starred: only emission of deprotonated form can be measured due to high photoacidity): 538* nm | shift of emission and absorption spectra with change of more polar solvent (water) to less polar (ethanol, acetonitrile) ([1]; neutral form): hypsochromic shift | Abs. peak ([1]; water, anionic form): 484 nm | Emis. peak ([1]; water, anionic form): 532 nm | ext. coef. ([1]; water, anionic form): 44400 M⁻¹ cm⁻¹ | Abs. peak ([1]; water, neutral form): 400 nm | ext. coef. ([1]; water, neutral form): 32000 M⁻¹ cm⁻¹ | Emis. peak [1, 7]: 532* nm | Quantum yield of fluorescence ([2]; water, anionic form): 0.73 | solubility at 5 h [4, 8]: ~1000 µM (≈ 300 µg/mL) | solubility at 5 h [4, 9]: 1 µM (≈ 0.3 µg/mL) | pKa ([5]; excited state): < 0 | pKa* ([5]; excited state, listed as (Z)-4-(2-(difluoroboryl)-3,5-difluoro-4-hydroxybenzylidene)-1,2-dimethyl-1H-imid): lies in the negative region | pKa* ([5]; excited state, listed as diF-p-HOBDI-BF2): in the range of negative values | pKa ([5]; ground state, phenol group): 5.2
SMILES: CC1=N/C(=C\c2cc(F)c(O)c(F)c2B(F)F)C(=O)N1C [di-F-p-HOBDI-BF2, (Z)-4-(2-(difluoroboryl)-3,5-difluoro-4-hydroxybenzylidene)-1,2-dimethyl-1H-imidazole-5(4H)-one]

Abs. peak ([1]; acetonitrile, anionic form): 555 nm | Emis. peak ([1]; acetonitrile, anionic form): 598 nm | Abs. peak ([1]; acetonitrile, neutral form): 444 nm | Emis. peak ([1]; acetonitrile, neutral form): 502 nm | shift of emission and absorption spectra with change of more polar solvent (water) to less polar (ethanol, acetonitrile) ([1]; anionic form): bathochromic shift | Abs. peak ([1]; ethanol, anionic form): 529 nm | Emis. peak ([1]; ethanol, anionic form): 587 nm | Abs. peak ([1]; ethanol, neutral form): 450 nm | Emis. peak ([1]; ethanol, neutral form): 505 nm | shift of emission and absorption spectra with change of more polar solvent (water) to less polar (ethanol, acetonitrile) ([1]; neutral form): hypsochromic shift | Abs. peak ([1]; water, anionic form): 502 nm | Emis. peak ([1]; water, anionic form): 570 nm | Abs. peak ([1]; water, neutral form): 467 nm | Emis. peak ([1]; water, neutral form): 521 nm | Quantum yield of fluorescence ([2]; water, anionic form): 0.27
SMILES: CN(C)/C=C/C1=NC(=C\c2ccc(O)cc2B(F)F)/C(=O)N1C [p-HOBDI-dimethylaminoethenyl-BF2, (Z)-4-(2-(difluoroboryl)-4-hydroxybenzylidene)-2-((E)-2-(dimethylamino)vynil)-1-methyl-1H-imidazole-5(4H)-one]
